# Calls of active or inactive are those of the source.
# What was measured:
# Leucine aminopeptidase = biological target: T1, Leucine aminopeptidase (Plasmodium falciparum 3D7, UniProt Q8IL11); assay: P. falciparum M17LAP inhibitors, primary screen, biochemical, fluorogenic H-Leu-NHMec substrate, 1536-well (AID 1619); assay type: functional
# T1 sequence (Q8IL11 whole entry): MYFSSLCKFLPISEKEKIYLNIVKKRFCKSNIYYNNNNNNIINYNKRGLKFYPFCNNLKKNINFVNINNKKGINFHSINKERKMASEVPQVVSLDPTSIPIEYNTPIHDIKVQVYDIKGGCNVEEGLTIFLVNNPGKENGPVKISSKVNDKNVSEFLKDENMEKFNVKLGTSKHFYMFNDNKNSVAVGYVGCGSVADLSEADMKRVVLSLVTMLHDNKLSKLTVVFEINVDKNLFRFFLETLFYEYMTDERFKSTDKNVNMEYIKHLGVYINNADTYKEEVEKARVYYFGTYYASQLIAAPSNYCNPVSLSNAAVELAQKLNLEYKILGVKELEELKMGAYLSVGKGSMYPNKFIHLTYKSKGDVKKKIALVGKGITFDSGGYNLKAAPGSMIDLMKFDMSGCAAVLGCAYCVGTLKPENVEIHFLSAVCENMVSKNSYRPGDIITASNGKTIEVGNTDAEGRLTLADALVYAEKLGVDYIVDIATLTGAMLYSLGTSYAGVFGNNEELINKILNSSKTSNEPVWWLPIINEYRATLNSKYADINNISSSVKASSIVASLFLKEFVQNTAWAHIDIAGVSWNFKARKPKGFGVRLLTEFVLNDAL
# [1] = biological target: Induced myeloid leukemia cell differentiation protein Mcl-1 (Homo sapiens, UniProt Q07820); assay type: functional
# H9c2 = assay: cells; assay type: functional, cell-based; details: Rattus norvegicus, H9c2, Myocardium;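 note: confirmatory concentration-response retest of ultra-high-throughput screening hits for modulation of myocardial damage; cell death induced by hydrogen peroxide oxidative stress; compound pretreatment for 60 min then peroxide exposure for 2 h; potency is for protecting the cells against peroxide damage rather than for killing them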
# [2] = biological target: T2, Mannose-6-phosphate isomerase (Homo sapiens, UniProt P34949); assay: MPI inhibition at elevated mannose 6-phosphate – biochemical, fluorescence intensity, high mannose 6-phosphate, primary screen (AID 1220)
# T2 sequence (P34949 whole entry): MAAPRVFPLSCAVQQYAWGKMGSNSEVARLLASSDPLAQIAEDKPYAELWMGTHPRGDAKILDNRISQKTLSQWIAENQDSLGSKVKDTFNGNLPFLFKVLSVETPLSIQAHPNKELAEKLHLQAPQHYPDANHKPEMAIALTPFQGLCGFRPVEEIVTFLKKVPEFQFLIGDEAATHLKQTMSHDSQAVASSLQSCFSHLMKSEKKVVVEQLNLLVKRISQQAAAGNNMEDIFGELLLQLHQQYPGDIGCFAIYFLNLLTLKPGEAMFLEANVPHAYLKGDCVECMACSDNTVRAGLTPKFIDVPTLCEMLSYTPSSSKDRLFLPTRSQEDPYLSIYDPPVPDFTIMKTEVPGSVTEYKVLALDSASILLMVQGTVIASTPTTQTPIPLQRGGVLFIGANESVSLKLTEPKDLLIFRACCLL
# [3] = HEK-293T cell viability reduction – luminescence, B-cell screen hits, cytotoxicity control for BCR NF-kB inhibitor project, dose response (AID 489021); assay type: functional, cell-based;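 note: HEK-293T cells carrying an NF-kB luciferase reporter; cells exposed to compound for about 14 hours before viability readout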
# [4] = biological target: T3, Polyadenylate-binding protein 1 (Homo sapiens, UniProt P11940); assay: MLLE binding blockers, Cy5 peptide tracer – biochemical, fluorescence polarization, Cy5-PAM2 peptide, secondary, miRNA deadenylation inhibitor project, dose response (AID 602260); assay type: functional; details: read-out: IC50_Mean
# [5] = biological target: T4, Replicative DNA helicase DnaB (Mycobacterium tuberculosis, UniProt P9WMR3); assay: DnaB intein splicing inhibitors, dose response, biochemical, cell-free fluorescence (AID 449749); assay type: functional
# T4 sequence (P9WMR3 whole entry): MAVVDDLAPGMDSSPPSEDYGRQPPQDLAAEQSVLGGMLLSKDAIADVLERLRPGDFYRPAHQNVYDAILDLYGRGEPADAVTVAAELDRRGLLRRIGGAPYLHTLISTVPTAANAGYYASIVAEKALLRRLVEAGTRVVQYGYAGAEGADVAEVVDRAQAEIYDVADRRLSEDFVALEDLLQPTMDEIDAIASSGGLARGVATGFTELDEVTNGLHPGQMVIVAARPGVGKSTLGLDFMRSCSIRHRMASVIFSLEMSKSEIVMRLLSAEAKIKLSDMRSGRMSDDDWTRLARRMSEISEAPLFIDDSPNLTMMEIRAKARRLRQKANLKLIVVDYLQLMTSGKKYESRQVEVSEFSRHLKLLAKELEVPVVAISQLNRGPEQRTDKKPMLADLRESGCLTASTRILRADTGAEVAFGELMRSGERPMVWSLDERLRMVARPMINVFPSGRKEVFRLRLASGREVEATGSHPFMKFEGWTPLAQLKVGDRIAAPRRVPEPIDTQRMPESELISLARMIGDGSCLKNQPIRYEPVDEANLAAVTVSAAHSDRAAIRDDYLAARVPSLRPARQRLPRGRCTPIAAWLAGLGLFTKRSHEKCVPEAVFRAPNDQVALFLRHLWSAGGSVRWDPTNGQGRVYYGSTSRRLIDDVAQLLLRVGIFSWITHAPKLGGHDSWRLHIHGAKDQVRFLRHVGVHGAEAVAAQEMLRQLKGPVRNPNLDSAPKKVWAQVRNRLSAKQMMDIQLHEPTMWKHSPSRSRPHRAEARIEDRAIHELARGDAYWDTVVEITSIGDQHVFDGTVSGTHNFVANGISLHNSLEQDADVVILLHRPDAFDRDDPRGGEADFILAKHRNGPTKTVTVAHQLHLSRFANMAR
# [6] = biological target: T3, Polyadenylate-binding protein 1; assay: MLLE domain peptide-binding blockers, IC50 – biochemical, fluorescence polarization, FITC-PAM2 peptide, dose response (AID 602259); assay type: functional; details: read-out: IC50_Mean
# [7] = biological target: T5, Ubiquitin-conjugating enzyme E2 N (Homo sapiens, UniProt P61088); assay type: functional;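 note: Dose-response confirmation in a TR-FRET assay detecting UBC13-driven polyubiquitin chain formation, inhibition measured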
# T5 sequence (P61088 whole entry): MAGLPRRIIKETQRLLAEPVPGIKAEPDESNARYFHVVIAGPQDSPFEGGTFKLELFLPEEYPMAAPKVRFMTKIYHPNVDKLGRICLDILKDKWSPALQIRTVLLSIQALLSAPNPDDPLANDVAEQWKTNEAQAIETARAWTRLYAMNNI
# Protein RecA = biological target: T6, Protein RecA (Mycobacterium tuberculosis, UniProt P9WHJ3); assay: Fluorescence Cell-Free Homogeneous Dose Retest to Identify Inhibitors of RecA-Intein Splicing Activity. [Related pubchem assays (depositor defined):AID2097, AID2223, AID489010, AID492950]; assay type: functional
# T6 sequence (P9WHJ3 whole entry): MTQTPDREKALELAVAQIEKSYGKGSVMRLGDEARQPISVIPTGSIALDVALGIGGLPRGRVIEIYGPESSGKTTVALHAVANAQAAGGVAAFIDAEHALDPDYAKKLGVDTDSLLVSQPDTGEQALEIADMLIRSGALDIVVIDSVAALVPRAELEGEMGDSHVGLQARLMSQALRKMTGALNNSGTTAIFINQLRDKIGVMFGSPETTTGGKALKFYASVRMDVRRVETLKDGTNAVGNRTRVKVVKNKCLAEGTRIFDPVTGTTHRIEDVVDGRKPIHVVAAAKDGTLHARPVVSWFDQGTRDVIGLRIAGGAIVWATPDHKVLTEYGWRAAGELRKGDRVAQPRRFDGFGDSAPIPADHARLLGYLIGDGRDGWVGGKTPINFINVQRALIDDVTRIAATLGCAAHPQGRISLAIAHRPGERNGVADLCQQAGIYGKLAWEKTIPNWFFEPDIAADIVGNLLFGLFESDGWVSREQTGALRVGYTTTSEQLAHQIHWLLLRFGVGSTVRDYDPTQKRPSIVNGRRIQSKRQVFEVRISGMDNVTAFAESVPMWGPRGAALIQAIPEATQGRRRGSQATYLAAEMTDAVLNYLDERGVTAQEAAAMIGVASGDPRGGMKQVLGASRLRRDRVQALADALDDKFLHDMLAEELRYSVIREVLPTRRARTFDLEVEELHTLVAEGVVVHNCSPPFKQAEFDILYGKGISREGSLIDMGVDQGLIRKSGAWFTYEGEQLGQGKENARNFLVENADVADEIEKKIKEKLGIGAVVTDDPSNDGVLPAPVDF
# Fatty acid synthase [8] = biological target: T7, Fatty acid synthase (Homo sapiens, UniProt P49327); assay: inhibition of human FAS-TE enzyme activity – biochemical, endpoint fluorescence intensity, uHTS hits, dose response (AID 624327); assay type: functional;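 note: fluorescence from hydrolysis of an O-methyl fluorescein acyl ester substrate by the enzyme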
# Fatty acid synthase [9] = biological target: T7, Fatty acid synthase; assay: inhibition of human FAS-TE enzyme activity – biochemical, kinetic fluorescence intensity, dose response (AID 624326); assay type: functional;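 note: rate of fluorescence rise from hydrolysis of a fluorogenic O-methyl fluorescein ester substrate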
# [10] = Luminescence Cell-Based Dose Retest to Confirm Inhibitors of Cancer Stem Cells. [Related pubchem assays (depositor defined):AID2717, AID2721]; assay type: functional; details: Homo sapiens
# P388/ADR = assay: cells; assay type: functional; details: Mus musculus
# P388 = assay: cells; assay type: functional; details: Mus musculus
# SN12K1 = assay: cells; assay type: functional; details: Homo sapiens
# Paired box protein Pax-8 = Paired box protein Pax-8 (Homo sapiens, UniProt Q06710); assay: PAX8 transcriptional activity inhibition in RMG-I – RMG-I cells, luciferase, cherry-pick, dose response (AID 687027); assay type: functional, cell-based;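 note: luciferase reporter driven by Pax8 target thyroperoxidase promoter measured by SteadyGlo luminescence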
# [11] = OVCAR-3 cell viability loss – plate reader, dry powder samples, PAX8 inhibitor project, dose response (AID 743044); assay type: functional, cell-based
# [12] = OVCAR8 cell viability loss – plate reader, dry powder samples, PAX8 project, dose response (AID 743197); assay type: functional, cell-based; details: OVCAR-8
# Induced myeloid leukemia cell differentiation protein Mcl-1, sequence (Q07820 whole entry): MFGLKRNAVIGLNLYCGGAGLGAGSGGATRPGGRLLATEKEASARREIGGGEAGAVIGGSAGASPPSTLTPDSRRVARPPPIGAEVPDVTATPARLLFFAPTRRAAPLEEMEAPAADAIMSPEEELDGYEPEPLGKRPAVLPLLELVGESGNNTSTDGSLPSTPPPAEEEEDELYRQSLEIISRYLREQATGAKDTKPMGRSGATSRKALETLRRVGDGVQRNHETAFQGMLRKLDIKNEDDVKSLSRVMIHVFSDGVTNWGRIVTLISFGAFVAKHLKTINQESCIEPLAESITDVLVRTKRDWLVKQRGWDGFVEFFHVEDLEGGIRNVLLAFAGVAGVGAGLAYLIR
# T7 sequence (P49327 whole entry): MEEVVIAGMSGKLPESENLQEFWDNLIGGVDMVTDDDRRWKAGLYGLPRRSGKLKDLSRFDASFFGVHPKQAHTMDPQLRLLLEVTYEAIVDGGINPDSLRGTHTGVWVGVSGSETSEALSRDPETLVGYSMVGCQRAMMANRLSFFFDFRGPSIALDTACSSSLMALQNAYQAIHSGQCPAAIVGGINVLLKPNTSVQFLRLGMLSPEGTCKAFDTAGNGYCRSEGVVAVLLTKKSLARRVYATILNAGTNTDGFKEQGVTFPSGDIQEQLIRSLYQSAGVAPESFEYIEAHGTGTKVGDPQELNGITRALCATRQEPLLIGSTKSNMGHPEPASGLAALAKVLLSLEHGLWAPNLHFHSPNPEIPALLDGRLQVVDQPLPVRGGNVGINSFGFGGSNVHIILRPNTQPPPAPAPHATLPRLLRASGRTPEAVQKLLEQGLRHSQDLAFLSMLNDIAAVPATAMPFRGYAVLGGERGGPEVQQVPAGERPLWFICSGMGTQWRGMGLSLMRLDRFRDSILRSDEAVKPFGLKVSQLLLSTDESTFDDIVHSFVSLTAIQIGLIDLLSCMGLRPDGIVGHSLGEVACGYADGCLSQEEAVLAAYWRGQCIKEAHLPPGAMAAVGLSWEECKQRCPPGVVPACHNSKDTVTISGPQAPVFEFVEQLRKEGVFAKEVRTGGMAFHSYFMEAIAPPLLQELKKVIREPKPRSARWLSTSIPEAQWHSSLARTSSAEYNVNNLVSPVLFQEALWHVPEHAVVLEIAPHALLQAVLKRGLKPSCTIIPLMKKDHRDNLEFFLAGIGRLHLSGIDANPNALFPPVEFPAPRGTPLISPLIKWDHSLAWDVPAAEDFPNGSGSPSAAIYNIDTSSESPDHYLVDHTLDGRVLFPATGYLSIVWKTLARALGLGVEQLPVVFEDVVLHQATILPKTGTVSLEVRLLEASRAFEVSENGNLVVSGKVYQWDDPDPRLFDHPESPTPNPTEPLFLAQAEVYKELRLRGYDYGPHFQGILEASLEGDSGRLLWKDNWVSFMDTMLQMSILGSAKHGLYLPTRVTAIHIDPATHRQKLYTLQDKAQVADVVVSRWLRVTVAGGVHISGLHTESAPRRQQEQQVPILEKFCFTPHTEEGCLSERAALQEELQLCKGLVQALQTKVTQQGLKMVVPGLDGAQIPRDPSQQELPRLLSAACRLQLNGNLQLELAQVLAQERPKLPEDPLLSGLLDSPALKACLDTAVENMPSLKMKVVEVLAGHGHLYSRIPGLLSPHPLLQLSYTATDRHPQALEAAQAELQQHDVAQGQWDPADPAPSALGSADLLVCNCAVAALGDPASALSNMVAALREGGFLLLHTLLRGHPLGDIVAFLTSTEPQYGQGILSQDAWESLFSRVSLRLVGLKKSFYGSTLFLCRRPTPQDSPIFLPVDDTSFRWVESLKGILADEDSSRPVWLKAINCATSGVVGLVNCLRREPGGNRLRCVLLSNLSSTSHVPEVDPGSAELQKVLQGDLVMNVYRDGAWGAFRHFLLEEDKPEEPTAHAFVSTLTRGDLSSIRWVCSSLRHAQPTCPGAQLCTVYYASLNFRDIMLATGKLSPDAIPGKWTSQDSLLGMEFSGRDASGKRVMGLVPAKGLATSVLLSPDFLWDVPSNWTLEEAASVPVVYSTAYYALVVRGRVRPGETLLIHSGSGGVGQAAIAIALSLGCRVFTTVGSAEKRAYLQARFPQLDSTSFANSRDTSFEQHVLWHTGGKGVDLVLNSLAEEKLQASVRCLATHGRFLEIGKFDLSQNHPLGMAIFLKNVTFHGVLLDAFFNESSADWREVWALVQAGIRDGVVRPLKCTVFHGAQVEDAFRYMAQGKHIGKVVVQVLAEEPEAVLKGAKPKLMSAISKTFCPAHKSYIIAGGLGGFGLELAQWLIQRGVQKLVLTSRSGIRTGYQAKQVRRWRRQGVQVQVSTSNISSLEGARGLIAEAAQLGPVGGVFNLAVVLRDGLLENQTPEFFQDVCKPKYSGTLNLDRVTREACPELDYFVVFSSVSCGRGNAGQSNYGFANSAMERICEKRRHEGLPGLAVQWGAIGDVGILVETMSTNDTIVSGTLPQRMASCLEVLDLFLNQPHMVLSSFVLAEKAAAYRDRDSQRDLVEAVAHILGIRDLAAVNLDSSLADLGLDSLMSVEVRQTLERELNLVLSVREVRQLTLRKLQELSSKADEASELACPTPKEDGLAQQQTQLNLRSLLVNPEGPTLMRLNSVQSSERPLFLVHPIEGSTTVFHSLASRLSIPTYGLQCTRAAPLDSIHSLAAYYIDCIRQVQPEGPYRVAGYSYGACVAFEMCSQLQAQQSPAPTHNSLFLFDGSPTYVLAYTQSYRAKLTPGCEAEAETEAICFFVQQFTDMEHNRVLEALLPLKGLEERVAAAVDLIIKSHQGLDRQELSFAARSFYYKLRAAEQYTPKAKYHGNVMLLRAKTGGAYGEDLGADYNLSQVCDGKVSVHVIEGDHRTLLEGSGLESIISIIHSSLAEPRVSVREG
# Paired box protein Pax-8, sequence (Q06710 whole entry): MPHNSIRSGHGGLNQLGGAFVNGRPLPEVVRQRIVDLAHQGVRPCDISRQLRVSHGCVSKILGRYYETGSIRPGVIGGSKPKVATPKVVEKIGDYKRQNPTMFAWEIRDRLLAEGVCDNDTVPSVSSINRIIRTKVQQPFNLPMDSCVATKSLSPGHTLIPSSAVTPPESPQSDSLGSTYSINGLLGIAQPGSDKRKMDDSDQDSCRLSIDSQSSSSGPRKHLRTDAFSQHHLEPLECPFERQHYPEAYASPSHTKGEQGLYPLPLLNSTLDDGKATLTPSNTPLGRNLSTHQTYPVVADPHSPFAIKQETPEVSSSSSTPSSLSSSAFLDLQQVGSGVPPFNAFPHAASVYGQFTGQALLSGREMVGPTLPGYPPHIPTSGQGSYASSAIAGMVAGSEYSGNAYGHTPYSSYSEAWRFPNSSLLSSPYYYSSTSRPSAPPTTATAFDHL
# T3 sequence (P11940 whole entry): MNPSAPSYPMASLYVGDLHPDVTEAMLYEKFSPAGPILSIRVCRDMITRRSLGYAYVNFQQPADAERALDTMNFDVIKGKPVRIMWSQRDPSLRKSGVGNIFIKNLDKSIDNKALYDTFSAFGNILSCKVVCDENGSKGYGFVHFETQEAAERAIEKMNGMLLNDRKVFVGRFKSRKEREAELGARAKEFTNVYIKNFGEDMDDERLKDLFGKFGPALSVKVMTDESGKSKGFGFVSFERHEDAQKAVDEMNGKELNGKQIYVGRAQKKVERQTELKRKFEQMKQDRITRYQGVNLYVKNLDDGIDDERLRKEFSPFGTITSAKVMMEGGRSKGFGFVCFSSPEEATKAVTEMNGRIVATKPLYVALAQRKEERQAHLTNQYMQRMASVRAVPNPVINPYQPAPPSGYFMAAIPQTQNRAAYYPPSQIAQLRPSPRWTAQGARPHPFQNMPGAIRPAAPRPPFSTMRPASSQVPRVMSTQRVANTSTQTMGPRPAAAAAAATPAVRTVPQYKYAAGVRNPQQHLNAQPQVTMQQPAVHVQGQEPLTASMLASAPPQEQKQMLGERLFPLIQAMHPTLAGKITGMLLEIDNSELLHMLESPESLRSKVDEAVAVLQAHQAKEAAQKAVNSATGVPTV
smiles,measurement,setting,value
O=C(O)Cn1nnnc1SCC(=O)Nc1ccc(OC(F)(F)F)cc1,IC50,Leucine aminopeptidase,5.22 µM (active)
CC(C)Oc1ccc(C(CC(=O)O)NC(=O)CSc2nnc[nH]2)cc1 (configuration not stated),IC50,Leucine aminopeptidase,47.4 µM (active)
COc1ccc(NC(=O)CSc2ncnc3c2sc2ccccc23)c(OC)c1,IC50,[1],10.3 µM (not active)
CCCOc1ccc(C(=O)Nc2ccc(N(C)C)cc2)cc1,IC50,[1],3.27 µM (not active)
CCC(C)Nc1ncnc2c1cnn2Cc1ccc(Cl)cc1 (configuration not stated),IC50,H9c2,> 79 µM (inactive)
Oc1ccc(N2CCN(c3ncnc4sc5c(c34)CCC5)CC2)cc1,IC50,[1],4.31 µM (active)
CNc1c([N+](=O)[O-])ccc2c1=NC1(CCCCC1)[N+]=2[O-],IC50,[2],> 50 µM (not active)
COc1ccc(-c2noc(N3CCC(C(=O)Nc4ccc(OC)c(OC)c4)CC3)n2)cc1,IC50,[3],> 80 µM (inactive)
O=C(/C=C\c1cn(-c2ccccc2)nc1-c1ccc2c(c1)OCCO2)N1CCOCC1,IC50,H9c2,> 79 µM (inactive)
CCN=C(S)N=Nc1c(O)[nH]c2ccc([N+](=O)[O-])cc12,IC50,[4],> 66 µM (inactive)
same,AC50,[5],> 380 µM (inactive)
same,IC50,[6],> 66 µM (inactive)
same,IC50,[7],> 20 µM (inactive)
same,EC50,Protein RecA,56.6 µM (active)
O=[N+]([O-])c1ccc(Sc2nnc(-c3ccccc3)[nH]2)nc1,IC50,Leucine aminopeptidase,31.5 µM (active)
same,IC50,Fatty acid synthase [8],10.9 µM (active)
same,IC50,Fatty acid synthase [9],10.6 µM (active)
Cc1ccc(-c2[nH]c(C(=O)NCC3CCCO3)cc3c4ccccc4nc2-3)cc1 (configuration not stated),IC50,[3],> 80 µM (inactive)
CCOc1ccc(N2C(=O)CC(SCCN)C2=O)cc1 (configuration not stated),IC50,Leucine aminopeptidase,23.6 µM (active)
COc1cc(OC)cc(C(=O)Nc2ccc(C(=O)Nc3ccccc3OC)cc2)c1,IC50,H9c2,> 79 µM (inactive)
O=C(NNC(=O)C12CC3CC(CC(Br)(C3)C1)C2)c1ccccc1F,IC50,[3],> 80 µM (inactive)
O=C(COC(=O)c1cc(O)nc(O)n1)Nc1cccc(Cl)c1,IC50,[7],> 20 µM (inactive)
O=C(Nc1cccc(/C=C/c2ccccn2)c1)c1ccc(-n2cncn2)cc1,IC50,H9c2,38.2 µM (inactive)
COc1cccc(-c2sc3ccccc3c2-c2ccc(OCCN3CCCCC3)cc2)c1,AC50,[10],1.43 µM (active)
same,IC50,[7],> 20 µM (inactive)
COc1cc(/C=C/C(=O)OCC(=O)N2c3ccccc3NC(=O)C2(C)C)cc(OC)c1OC,IC50,H9c2,> 79 µM (inactive)
C[C@H]1Cn2cnc(C(=O)N[C@@H](Cc3c[nH]c4ccccc34)C(=O)OC(C)(C)C)c2C(=O)N1,IC50,H9c2,18 µM (active)
O=C(CCl)NNC1=Nc2ccc(Cl)cc2SC1,GI50,P388/ADR,0.627 µM (active)
same,GI50,P388,0.236 µM (active)
same,GI50,SN12K1,3.45 µM (inactive)
N#C/C(=C\c1ccncc1)c1csc2ccccc12,GI50,P388/ADR,6.49 µM (inactive)
same,GI50,P388,19.1 µM (inactive)
same,GI50,SN12K1,29.2 µM (inactive)
C[C@@H]1CN([C@H](C)CO)C(=O)c2cc(NS(=O)(=O)c3ccc(F)cc3)ccc2O[C@@H](C)CCCCO[C@@H]1CN(C)CC1CCCCC1,AC50,Paired box protein Pax-8,13 µM (active)
same,AC50,[11],44 µM (active)
same,AC50,[12],> 70 µM (inactive)
C[C@@H]1CCCCO[C@H](CN(C)C(=O)Nc2ccc(C(F)(F)F)cc2)[C@@H](C)CN([C@@H](C)CO)C(=O)c2cc(NC(=O)Nc3ccc(C(F)(F)F)cc3)ccc2O1,AC50,Paired box protein Pax-8,2.32 µM (active)
same,AC50,[11],19.6 µM (active)
same,AC50,[12],32.8 µM (active)
C/C=C1/C(=O)O[C@]23C=C[C@@H]4C(C(=O)OC)=CO[C@H](O[C@@H]12)[C@@H]43 [PLUMERICIN],GI50,P388/ADR,0.0853 µM (active)
same,GI50,P388,0.105 µM (active)
same,GI50,SN12K1,1.09 µM (active)

# From ChEMBL document CHEMBL1201862, “PubChem BioAssay data set” (2004)
